Assay results taken from US20220289680A1, “METHODS FOR MAKING DIMERIC NAPHTHALIMIDES AND SOLID STATE FORMS OF THE SAME” (Alucent Biomedical, Inc., priority 2018, published 2022).
Each block holds one molecule with its values, some of them ahead of it.

Experiments:
Format in all cases: physicochemical
[1] = Solubility measurements in various solvents (visual inspection of dissolution); settings: thermodynamic from solid
Method: The mass of a sample of Compound of Formula (I) was determined, and to that sample was added an aliquot of solvent, as shown in Table 5. Visual inspection was used to determine whether dissolution occurred. The solubility of Compound of Formula (I) in each solvent was calculated by dividing the weight of the sample by the total amount of solvent used to dissolve the sample. Table 6 lists the solubility of Compound of Formula (I) in each solvent.

[2] = Dynamic vapor sorption (DVS) analysis; settings: 25° C.
Method: (§1) DVS analysis was carried out using a TA Instruments Q5000 Dynamic Vapor Sorption analyzer. The instrument was calibrated with standard weights and a sodium bromide standard for humidity. Approximately 10-25 mg of sample was loaded into a metal-coated quartz pan for analysis. The sample was analyzed at 25° C. with a maximum equilibration time of one hour in 10% relative humidity (RH) steps from 5% to 95% RH (adsorption cycle) and from 95% to 5% RH (desorption cycle). The movement from one step to the next occurred either after satisfying the equilibrium criterion of 0.01% weight change or, if the equilibrium criterion was not met, after one hour. The percent weight change values were calculated using Microsoft Excel®.

[3] = Post-DVS X-ray powder diffraction analysis (solid form stability); settings: after DVS cycling 5%-95%-5% RH
Source text: (§2) The Rigaku Smart-Lab X-ray diffraction system was configured for reflection Bragg-Brentano geometry using a line source X-ray beam. The x-ray source was a Cu Long Fine Focus tube that was operated at 40 kV and 44 ma. That source provided an incident beam profile (at the sample) that changed from a narrow line at high angles to a broad rectangle at low angles. Beam conditioning slits were used on the X-ray source to ensure that the maximum beam size is less than 10 mm, both along the line and normal to the line. The Rigaku Smart-Lab was operated to give peak widths of 0.1 degrees two-theta or less. The axial divergence of the X-ray beam was controlled by 5.0-degree Soller slits in both the incident and diffracted beam paths.
(§3) Powder samples were prepared in a low-background Si holder using light manual pressure to keep the sample surfaces flat and level with the reference surface of the sample holder. Each sample was analyzed from 2 to 40 degrees two-theta using a continuous scan of 6 degrees two-theta per minute, with an effective step size of 0.02 degrees two-theta.
as §1

[4] = Post-heating X-ray powder diffraction analysis (solid form stability); settings: heated at 80° C. for 20 minutes
Source text: as §2, §3
A sample of Form 2 was heated at 80° C. for 20 minutes. After cooling, the sample was analyzed using x-ray powder diffraction.

[5] = sample of Example 3 (synthesized by a method similar to Example 4, Form 1)
[6] = slurry-derived samples of Example 2

solubility ([1]; 1,1,1,3,3,3-hexafluoro-2-propanol (HFIPA), organic solvent or mixture): 18000 µg/mL
solubility ([1]; 1,4-dioxane, organic solvent or mixture): < 1000 µg/mL
solubility ([1]; 2,2,2-trifluoroethanol (TFE), organic solvent or mixture): 18000 µg/mL
solubility ([1]; 2-methyl tetrahydrofuran (2-MeTHF), organic solvent or mixture): < 1000 µg/mL
solubility ([1]; N,N-dimethylformamide (DMF), organic solvent or mixture, N,N-dinnethylformamide (DMF)): < 1000 µg/mL
solubility ([1]; acetone, organic solvent or mixture): < 1000 µg/mL
solubility ([1]; acetone/water (95/5, v/v), organic solvent or mixture): < 1000 µg/mL
solubility ([1]; acetonitrile/water (95/5, v/v), organic solvent or mixture): < 1000 µg/mL
solubility ([1]; dichloromethane (DCM), organic solvent or mixture): < 1000 µg/mL
solubility ([1]; dimethylsulfoxide (DMSO), organic solvent or mixture): < 1000 µg/mL
solubility ([1]; ethanol/water (95/5, v/v), organic solvent or mixture): < 1000 µg/mL
solubility ([1]; methyl ethyl ketone (MEK), organic solvent or mixture): < 1000 µg/mL
solubility ([1]; organic solvent or mixture, 2-propanol (2-PrOH)): < 1000 µg/mL
solubility ([1]; organic solvent or mixture, acetonitrile (CAN)): < 1000 µg/mL
solubility ([1]; organic solvent or mixture, diethyl ether (Et2O)): < 1000 µg/mL
solubility ([1]; organic solvent or mixture, ethanol (EtOH)): < 1000 µg/mL
solubility ([1]; organic solvent or mixture, ethyl acetate (EtOAc)): < 1000 µg/mL
solubility ([1]; organic solvent or mixture, methanol (MeOH)): < 1000 µg/mL
solubility ([1]; tetrahydrofuran (THF), organic solvent or mixture): < 1000 µg/mL
solubility ([1]; tetrahydrofuran/water (95/5, v/v), organic solvent or mixture): < 1000 µg/mL
solubility ([1]; toluene, organic solvent or mixture): < 1000 µg/mL
solubility ([1]; water): < 1000 µg/mL
DVS weight gain when cycling from 5% to 95% relative humidity [2, 5]: 16.36%
DVS weight loss upon drying at 5% relative humidity [2, 5]: 0.66%
DVS weight loss when cycling from 95% to 5% relative humidity [2, 5]: 15.51%
XRPD pattern after DVS cycling relative to the same sample prior to DVS analysis [3]: unchanged
Compound: NCCOCCOCCNc1ccc2c3c(cccc13)C(=O)N(CCOCCOCCN1C(=O)c3cccc4c(NCCOCCOCCN)ccc(c34)C1=O)C2=O [Compound of Formula (I), 2,2′-((ethane-1,2-diylbis(oxy))bis(ethane-2,1-diyl))bis(6-((2-(2-(2-aminoethoxy)ethoxy)ethyl)amino)-1H-benzo[de]isoquinoline-1,3(2H)-dione)]

DVS weight gain when cycling from 5% to 95% relative humidity [2, 5]: 16.36%
DVS weight loss upon drying at 5% relative humidity [2, 5]: 0.66%
DVS weight loss when cycling from 95% to 5% relative humidity [2, 5]: 15.51%
DVS weight gain when cycling from 5% to 95% relative humidity [2, 6]: 13.04%
DVS weight loss upon drying at 5% relative humidity [2, 6]: 0.6%
DVS weight loss when cycling from 95% to 5% relative humidity [2, 6]: 13.12%
XRPD pattern after DVS cycling relative to the same sample prior to DVS analysis [3]: unchanged
Compound: NCCOCCOCCNc1ccc2c3c(cccc13)C(=O)N(CCOCCOCCN1C(=O)c3cccc4c(NCCOCCOCCN)ccc(c34)C1=O)C2=O [Form 1, 2,2′-((ethane-1,2-diylbis(oxy))bis(ethane-2,1-diyl))bis(6-((2-(2-(2-aminoethoxy)ethoxy)ethyl)amino)-1H-benzo[de]isoquinoline-1,3(2H)-dione)]

DVS weight gain when cycling from 5% to 95% relative humidity [2, 6]: 7.2%
DVS weight loss upon drying at 5% relative humidity [2, 6]: 1.44%
DVS weight loss when cycling from 95% to 5% relative humidity [2, 6]: 14.63%
XRPD pattern after DVS cycling relative to the same sample prior to DVS analysis [3]: less crystalline
XRPD pattern after heating relative to the same sample before [4]: less crystalline
Compound: NCCOCCOCCNc1ccc2c3c(cccc13)C(=O)N(CCOCCOCCN1C(=O)c3cccc4c(NCCOCCOCCN)ccc(c34)C1=O)C2=O [Form 2, 2,2′-((ethane-1,2-diylbis(oxy))bis(ethane-2,1-diyl))bis(6-((2-(2-(2-aminoethoxy)ethoxy)ethyl)amino)-1H-benzo[de]isoquinoline-1,3(2H)-dione)]
